Data published in patent publication EP2696861B1, “COMBINATION OF EPA, DPA AND/OR DHA WITH A CHEMOTHERAPEUTIC AGENT” (priority 2011, dated 2012).

Test system: C26 cells
Experiment: Metabolic activity of C26 cells after fatty acid pre-incubation and chemotherapy incubation
Assay type: cell-based, Murine
Conditions: 4 days pre-incubation with 50 µM fatty acid, medium removed, compared to control, p< 0.0001 for EPA or DPA
Method: C = mice receiving control diet B, TB = tumor-bearing mice receiving control diet, TB-SNC = tumor-bearing mice receiving the specific nutritional combination.
Prior to chemotherapy incubations, C26 cells were pre-incubated for 4 days with EPA, DHA or DPA in a final concentration of 50 µM. To avoid direct interaction between fatty acids and chemotherapeutics, the medium containing fatty acids was removed before the addition of chemotherapy. The cells were incubated for 24 hr with the chemotherapeutics cisplatin and doxorubicin, after incubation the metabolic activity was measured.

SMILES: CC/C=C\C/C=C\C/C=C\C/C=C\C/C=C\C/C=C\CCC(=O)O [DHA, docosahexanoic acid]
- metabolic activity after cisplatin treatment (then 24 hr cisplatin): no significant changes in metabolic activity
- metabolic activity of doxorubicin treated cells (then 24 hr doxorubicin): no significant changes in metabolic activity
